Reference: patent publication US20230414657A1, “Novel compositions for neutralizing toxic effects of hydrogen peroxide in living cells or tissues” (Dzala LLC, priority 2020, published 2023)

Assays:
Type in all cases: in vivo
[1] = test system: C. elegans; test: Oxygen consumption rate (OCR), Seahorse XFe96; settings: 100 mM H2O2 plus supplement (10 mM GA, 100 μM glycine or 500 μM L-serine)
Method: Oxygen consumption of worms was measured with a Seahorse XFe96 system (Seahorse Bioscience, North Billerica, MA), as previously described^4. L3 larvae of the different strains were grown on plates or in liquid culture and supplemented for 2-4 days as described for each experiment. After removing bacteria and debris, approximately 100 worms were pipetted into each well of a 96-well Seahorse XF^e assay plate and OCR was measured until it stabilized. Then, 3 subsequent measurements were made at 6.5-min intervals. Finally, the exact number of worms in each well was counted and used for normalization. A small number of abnormal readings were also filtered out at this stage. On average, 7-8 wells (technical replicates) were used for each condition. Normalized OCR values were averaged for the last 3 measurements for each strain and condition. Four biological replicates were analyzed for each condition.

[2] = test system: C. elegans; settings: 100 mM H2O2 plus supplement (10 mM GA, 100 μM glycine or 500 μM L-serine)
Method: Mitochondrial staining was performed as described previously^3,4. Briefly, L1 worms were grown on plate or in liquid culture for 2-3 days at 15° C. […] Next, the excess dye was washed off with M9 buffer and worms were incubated in 100 μl M9 for 30 min to eliminate the excess dye in the gut. Finally, worms were paralyzed with 0.5 mM Levamizol (Sigma-Aldrich), placed on slides covered with a thin layer of 2% agarose on top of which the coverslip (22×22 mm, Menzel-Glaser no. 1) was fixed using nail polish. We used a Zeiss LSM 700 inverted laser scanning confocal microscope and a Zeiss LCI Plan-Neofluar 63×/1.3 ImmCorr DIC M27 objective to image mitochondria (Zeiss, Germany). MitoTracker Red CMXRos was excited at 555 nm and the emission above 560 nm was acquired by the second PMT. Optical sections at 0.1×0.1×0.5 μm^3 x-y-z resolution were collected in […]. Final images were adjusted for intensity and merged in Fiji. No non-linear adjustments were made.

[3] = test system: C. elegans; test: Growth rate / worm size; settings: 100 mM H2O2 plus supplement (10 mM GA, 100 μM glycine or 500 μM L-serine)
Method: (§1) Synchronized L1 worms were incubated at 15° C. on plates or in liquid culture and exposed to different conditions as indicated. Single worms were selected randomly from the plates or aliquots were taken from the liquid cultures and added to NGM plates for immediate visualization. 25 worms per treatment were measured at 24-48 hr intervals and all growth curves were done four times.

[4] = test system: C. elegans; test: Peroxide treatment of mutant, RNAi or unstressed worms: MMP, OCR and growth read together
Text: C. elegans wild-type (N2) strain was received from Caenorhabditis Genetics Center, USA. Mutant strains were generated using the following primers. Idh-1: […] and […]; C31C9.2 (ghpr-1): […] and […]and F41E6.5 (gox-1): […]and[…]. […] Progeny of the rescued strains were genotyped for homozygous deletion with PCR primers for three generations. All mutants were outcrossed at least twice with the wild type to eliminate background mutations. Double and triple mutants were obtained by crossing single or double mutants and selecting the homozygous progeny by PCR.
For RNAi experiments in liquid, E. coli HT115 containing L4440 empty vector or the indicated cDNA fragment in L4440 was inoculated in 100 ml of LB containing 100 μg/ml ampicillin and incubated overnight at 37° C. in a shaking incubator at 250 rpm. To induce the production of dsRNA, a final concentration 0.8 mM IPTG was added to the collected bacterial pellet diluted 100-fold and incubated overnight at 25° C. in a shaking incubator at 250 rpm. Bacteria were then pelleted by centrifugation at 4000 rpm for 5 mins and resuspended in 200 μl S-medium containing 100 μg/ml ampicillin and 0.8 mM IPTG.
A population of synchronized L1 larvae was added to 30-ml glass tubes containing 2.5 ml of S-complete medium (liquid culture)^2 and NA22 or induced RNAi bacteria at an OD600 of 1.9. […] Worms were incubated at 15° C. and 150 rpm in a shaking incubator for 2-6 days, refreshing the medium every 2 days.
Mitochondrial staining was performed as described previously^3,4. Briefly, L1 worms were grown on plate or in liquid culture for 2-3 days at 15° C. Subsequently, they were pelleted in a 15-ml tube, rinsed twice with H2O and resuspended in 100 μl of M9. 5 μM MitoTracker Red CMXRos (Thermo Fisher Scientific, Germany) in DMSO was added to the worm suspension and incubated in this solution for 1.5 hr at room temperature in the dark. Next, the excess dye was washed off with M9 buffer and worms were incubated in 100 μl M9 for 30 min to eliminate the excess dye in the gut. Finally, worms were paralyzed with 0.5 mM Levamizol (Sigma-Aldrich), placed on slides covered with a thin layer of 2% agarose on top of which the coverslip (22×22 mm, Menzel-Glaser no. 1) was fixed using nail polish. We used a Zeiss LSM 700 inverted laser scanning confocal microscope and a Zeiss LCI Plan-Neofluar 63×/1.3 ImmCorr DIC M27 objective to image mitochondria (Zeiss, Germany). MitoTracker Red CMXRos was excited at 555 nm and the emission above 560 nm was acquired by the second PMT. Optical sections at 0.1×0.1×0.5 μm^3 x-y-z resolution were collected in a 4D hyperstack. Final images were adjusted for intensity and merged in Fiji. No non-linear adjustments were made.
as §1, with “times. Images were analyzed using FIJI (Image J) software, with length measurements derived by the sum-total of a number of segmented lines of known length, down the center of the worm as described previously^5.” for “times.”
Oxygen consumption of worms was measured with a Seahorse XFe96 system (Seahorse Bioscience, North Billerica, MA), as previously described^4. L3 larvae of the different strains were grown on plates or in liquid culture and supplemented for 2-4 days as described for each experiment. After removing bacteria and debris, approximately 100 worms were pipetted into each well of a 96-well Seahorse XF^e assay plate and OCR was measured until it stabilized. Then, 3 subsequent measurements were made at 6.5-min intervals. Finally, the exact number of worms in each well was counted and used for normalization.

## O=C(O)CO [GA, glycolic acid]
[1]
  Respiration rate (OCR): able to restore both traits
[2]
  Mitochondrial membrane potential (MMP): prevented this effect
[3]
  Growth: able to restore both traits
[4]; GA supplementation in the absence of H2O2
  Impact on any of the parameters analyzed (FIGS. 1 and 2): does not have a significant impact
[4]; H2O2, RNAi against mel-32 or gcst-1
  Restoration of MMP, OCR or growth rate: none of these three compounds were able to restore
[4]; H2O2, worms fed with empty vector RNAi bacteria
  MMP, OCR, growth rate: restored parameters
[4]; ghpr-1, gox-1, ldh-1 triple mutant, H2O2
  Glycolate-mediated protection (MMP, OCR, growth): totally abolished
[4]; ghpr-1 deletion mutant, H2O2 treatment
  Effect of glycolate on MMP, oxygen consumption rate and developmental rate: significantly reduced effect
[4]; single mutants of gox-1 and ldh-1 or their double mutants, H2O2
  Effect of glycolate on MMP, OCR or growth: no reduction in the effect
